Tests used:
Format in all cases: cell-based
[1] = tested on: NCI-H526 cell line; experiment: Cell viability assay for NCI-H526 cell line (EZ-Cytox); conditions: Homo sapiens, NCI-H526, 120 h; H526 cells, 5 days, 3000 nM to 0.46 nM
Method: (§1) 3. Cell Viability Assay for NCI-H69, NCI-H526 Cell Lines
(§2) (1) Culture of NCI-H69, NCI-H526 Cell Lines
(§3) The NCI-H69 (hereafter H69) and NCI-H526 (hereafter H526) cell lines were purchased from KCLB.
(§4) (2) Treatment of Compounds of the Present Invention and Method of Cell Viability Assay
(§5) After treating the compound to each well to make the total volume of 200 μl, it was cultured in a CO2 incubator (Thermo Fisher Scientific) for 5 days. […] The absorbance of the completely cultured sample was measured by setting the wavelength of a plate reader (BMG Labtech) to […], and was measured after shaking for 3 minutes in a plate reader before measurement.
(§6) The results of cell viability for H526 and H69 cell line are shown in Table 3 and Table 4, respectively.
(§7) In Table 3 and Table 4, Activity represents IC50 value of each Exemplary Compound treatment group to H526 and H69 cell line, respectively (A: <30 nM, B: <50 nM, C: <100 nM, D: <200 nM, E: <400 nM).

[2] = tested on: NCI-H69 cell line; experiment: Cell viability assay for NCI-H69 cell line (EZ-Cytox); conditions: Homo sapiens, NCI-H69, 120 h; H69 cells, 5 days, 3000 nM to 0.46 nM
Method: as §1, §2, §3, §4, §5, §6, §7

[3] = target: T1, PLK1 (Homo sapiens, UniProt P53350); experiment: Luciferase assay for PLK1 in HeLa LgBit (Plk1-HiBit KI) cell line; conditions: 300 nM compound, luminescence after 9 hours
T1 construct: endogenous in cells; host or cells: HeLa LgBit (Plk1-HiBit KI): HeLa stably expressing LgBit, with a CRISPR/Cas9 knock-in of HiBit at the endogenous PLK1 locus
T1 sequence (P53350 whole entry): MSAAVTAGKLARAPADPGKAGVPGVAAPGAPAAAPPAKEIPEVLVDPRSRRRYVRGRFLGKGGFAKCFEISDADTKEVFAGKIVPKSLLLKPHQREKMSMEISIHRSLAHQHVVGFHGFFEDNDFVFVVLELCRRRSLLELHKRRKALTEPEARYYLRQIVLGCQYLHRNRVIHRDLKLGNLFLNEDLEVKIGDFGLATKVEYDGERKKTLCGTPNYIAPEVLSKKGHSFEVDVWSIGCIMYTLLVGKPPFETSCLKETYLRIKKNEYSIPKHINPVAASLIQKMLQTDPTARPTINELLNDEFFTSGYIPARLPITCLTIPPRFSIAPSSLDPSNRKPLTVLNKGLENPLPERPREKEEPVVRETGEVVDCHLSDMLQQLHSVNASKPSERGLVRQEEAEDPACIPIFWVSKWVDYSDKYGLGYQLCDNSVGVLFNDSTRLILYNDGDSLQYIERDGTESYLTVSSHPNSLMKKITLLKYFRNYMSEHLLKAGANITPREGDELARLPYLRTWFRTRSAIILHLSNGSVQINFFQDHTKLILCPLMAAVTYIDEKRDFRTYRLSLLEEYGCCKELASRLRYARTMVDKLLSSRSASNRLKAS
Method: 2. Luciferase Assay for PLK1
(1) Preparation and Culture of HeLa LgBit (Plk1-HiBit KI) Cell Line
A HeLa cell line in which the LgBit vector was transfected and expressed stably was prepared. Then, after constructing gRNA and donor to express the HiBit amino acid sequence behind the C-terminal of the PLK1 gene, which was inherent in the cell, it was inserted into the cell together with a vector capable of expressing CRISPR/Cas9. Only the cells in which the insertion was completed and knock-in had progressed were selected, sub-cultured and used.
For cell culture, DMEM (Gibco), FBS (Gibco), PS (Gibco), […] cell culture dish (SPL), […] cell culture dish (SPL), 96-well culture plate (SPL), PBS pH 7.4 (Gibco), TrypLE™ Express (Gibco), Cell counter (Thermo Fisher Scientific) and 0.4% Trypan Blue Solution (DYNEBIO) were used.
(2) Treatment of Compounds of the Present Invention and Method of Luciferase Assay
In the case of HeLa LgBit (Plk1-HiBit KI), the compounds were treated after being released after thymidine block, and the process was as follows. Thymidine (Sigma-Aldrich) was completely dissolved in ddH2O and used in the experiment. For thymidine block, the products were treated with 2 mM of thymidine and then incubated for 24 hours. For release and chemical treatment, the medium was suctioned and washed with 1×PBS. TrypLE™ (Gibco) was added and incubated in 37° C. CO2 incubator (Thermo Fisher Scientific) for 5 mins. Cells neutralized by adding complete media were counted through a counter. For each well of a 96-well culture plate (SPL), 3.3×10^4 cells and a total medium volume of 150 μl were seeded and incubated in a CO2 incubator.
Each cell line was incubated in a CO2 incubator for 18 hours, and Endurazine (Promega, Cat. No. N257B) was added to each well to make up 4% of the total volume. After adding compounds of Examples in a 96-well white plate (SPL) to a concentration of 300 nM, the wavelength of the plate reader (BMG Labtech, CLARIOstar Plus) was set to 470-480 nm, and then the luminescence was tracked in real time.
In Table 2, Activity represents the ratio of the luminescence value of each Exemplary Compound treatment group to DMSO treatment group (+++: <0.3, ++: <0.5, +: <0.7).

[4] = tested on: MRC-5 cell line; experiment: Cell viability assay for MRC-5 cell line (EZ-Cytox); conditions: Homo sapiens, MRC5, 120 h; MRC-5 normal cell line, 5 days, 10000 nM to 1.52 nM; read-out: Activity: IC50 value, cell viability, MRC-5 cell line (Exemplary Compounds)
Method: 4. Cell Viability Assay for MRC-5 Cell Line
(1) Culture of MRC-5 Cell Line
The MRC-5 cell line was purchased from KCLB. Passage of cultured cells was maintained within P15.
(2) Treatment of Compounds of the Present Invention
Then, it was cultured in 37° C. CO2 incubator (Thermo Fisher Scientific) for 5 days.
(3) Cytotoxicity Experiment
CO2 incubator for 4 hours.

SMILES	Activity: ratio of the luminescence value of compound treatment group to DMSO treatment group [3]	IC50 [1] [nM]	IC50 [2] [nM]	IC50 [4] [nM]
COc1cc(C(=O)NN2CCC(CCN3CCN(c4cc(OC)c(NC5CCC(=O)NC5=O)cc4F)CC3)CC2)c(F)cc1Nc1ncc2c(n1)N(C(C)C)CC(F)(F)C(=O)N2C (stereo not shown) [Compound 43, 4-((7,7-difluoro-9-isopropyl-5-methyl-6-oxo-6,7,8,9-tetrahydro-5H-pyrimido[4,5-b][1,4]diazepin-2-yl)amino)-N-(4-(2-(4-(4-((2,6-dioxopiperidin-3-yl)amino)-2-fluoro-5-methoxyphenyl)piperazin-1-yl)ethyl)piperidin-1-yl)-2-fluoro-5-methoxybenzamide]	++ (++: <0.5)	< 30	< 30	> 10000
COc1cc(C(=O)NC2CCN(C3CN(c4ccc(C5CCC(=O)NC5=O)cc4F)C3)CC2)ccc1Nc1ncc2c(n1)N(C(C)C)CC(F)(F)C(=O)N2C (stereo not shown) [Compound 3, 4-((7,7-difluoro-9-isopropyl-5-methyl-6-oxo-6,7,8,9-tetrahydro-5H-pyrimido[4,5-b][1,4]diazepin-2-yl)amino)-N-(1-(1-(4-(2,6-dioxopiperidin-3-yl)-2-fluorophenyl)azetidin-3-yl)piperidin-4-yl)-3-methoxybenzamide]	++ (++: <0.5)	< 50	< 100	> 10000
COc1cc(C(=O)N[C@H]2[C@@H]3CN(CCN4CCN(c5ccc(NC6CCC(=O)NC6=O)cc5)CC4)C[C@@H]32)ccc1Nc1ncc2c(n1)N(C(C)C)CC(F)(F)C(=O)N2C (stereo partly drawn) [Compound 23, 4-((7,7-difluoro-9-isopropyl-5-methyl-6-oxo-6,7,8,9-tetrahydro-5H-pyrimido[4,5-b][1,4]diazepin-2-yl)amino)-N-((1R,5S,6s)-3-(2-(4-(4-((2,6-dioxopiperidin-3-yl)amino)phenyl)piperazin-1-yl)ethyl)-3-azabicyclo[3.1.0]hexan-6-yl)-3-methoxybenzamide]	++ (++: <0.5)	< 30	< 50	> 10000
COc1cc(C(=O)NC2CCN(CCN3CCN(c4cc(Cl)c(NC5CCC(=O)NC5=O)cc4F)CC3)CC2)c(F)cc1Nc1ncc2c(n1)N(C(C)C)CC(F)(F)C(=O)N2C (stereo not shown) [Compound 72, N(1-(2-(4-(5-chloro-4-((2,6-dioxopiperidin-3-yl)amino)-2-fluorophenyl)piperazin-1-yl)ethyl)piperidin-4-yl)-4-((7,7-difluoro-9-isopropyl-5-methyl-6-oxo-6,7,8,9-tetrahydro-5H-pyrimido[4,5-b][1,4]diazepin-2-yl)amino)-2-fluoro-5-methoxybenzamide]	++ (++: <0.5)	< 50	< 100	> 10000
COc1cc(C(=O)NC2CC3(CCN(CC4CCN(c5cc(F)c(NC6CCC(=O)NC6=O)cc5F)CC4)CC3)C2)c(F)cc1Nc1ncc2c(n1)N(C(C)C)CC(F)(F)C(=O)N2C (stereo not shown) [Compound 69, 4-((7,7-difluoro-9-isopropyl-5-methyl-6-oxo-6,7,8,9-tetrahydro-5H-pyrimido[4,5-b][1,4]diazepin-2-yl)amino)-N-(7-((1-(4-((2,6-dioxopiperidin-3-yl)amino)-2,5-difluorophenyl)piperidin-4-yl)methyl)-7-azaspiro[3.5]nonan-2-yl)-2-fluoro-5-methoxybenzamide]	++ (++: <0.5)	< 30	< 50	> 10000
COc1cc(C(=O)NC2CC3(CCN(CC4CCN(c5ccc(C6CCC(=O)NC6=O)nc5C)CC4)CC3)C2)ccc1Nc1ncc2c(n1)N(C1CCCC1)CC(F)(F)C(=O)N2C (stereo not shown) [Compound 18, 4-((9-cyclopentyl-7,7-difluoro-5-methyl-6-oxo-6,7,8,9-tetrahydro-5H-pyrimido[4,5-b][1,4]diazepin-2-yl)amino)-N-(7-((1-(6-(2,6-dioxopiperidin-3-yl)-2-methylpyridin-3-yl)piperidin-4-yl)methyl)-7-azaspiro[3.5]nonan-2-yl)-3-methoxybenzamide]	++ (++: <0.5)	< 30	< 30	> 10000

Further lines, with some results ahead:

Activity: ratio of the luminescence value of compound treatment group to DMSO treatment group [3]	SMILES	IC50 [1] [nM]	IC50 [2] [nM]	IC50 [4] [nM]
+++ (+++: <0.3)	COc1cc(C(=O)N[C@H]2CC[C@H](CN(C)C3CCN(c4cnc(C5CCC(=O)NC5=O)cc4C)CC3)CC2)ccc1Nc1ncc2c(n1)N(C(C)C)CC(F)(F)C(=O)N2C (stereo partly shown) [Compound 16, 4-((7,7-difluoro-9-isopropyl-5-methyl-6-oxo-6,7,8,9-tetrahydro-5H-pyrimido[4,5-b][1,4]diazepin-2-yl)amino)-N-((1r,4r)-4-(((1-(6-(2,6-dioxopiperidin-3-yl)-4-methylpyridin-3-yl)piperidin-4-yl)(methyl)amino)methyl)cyclohexyl)-3-methoxybenzamide]	< 30	< 30	> 10000
+++ (+++: <0.3)	COc1cc(C(=O)NN2CCC(CCN3CCN(c4ccc(NC5CCC(=O)NC5=O)c(F)c4OC)CC3)CC2)ccc1Nc1ncc2c(n1)N(C1CCCC1)CC(F)(F)C(=O)N2C (stereo not shown) [Compound 55, 4-((9-cyclopentyl-7,7-difluoro-5-methyl-6-oxo-6,7,8,9-tetrahydro-5H-pyrimido[4,5-b][1,4]diazepin-2-yl)amino)-N-(4-(2-(4-(4-((2,6-dioxopiperidin-3-yl)amino)-3-fluoro-2-methoxyphenyl)piperazin-1-yl)ethyl)piperidin-1-yl)-3-methoxybenzamide]	< 30	< 30	> 10000
+++ (+++: <0.3)	COc1cc(C(=O)NN2CCC(CCN3CCN(c4ccc(NC5CCC(=O)NC5=O)c(F)c4F)CC3)CC2)ccc1Nc1ncc2c(n1)N(C1CCCC1)CC(F)(F)C(=O)N2C (stereo not shown) [Compound 71, 4-((9-cyclopentyl-7,7-difluoro-5-methyl-6-oxo-6,7,8,9-tetrahydro-5H-pyrimido[4,5-b][1,4]diazepin-2-yl)amino)-N-(4-(2-(4-(4-((2,6-dioxopiperidin-3-yl)amino)-2,3-difluorophenyl)piperazin-1-yl)ethyl)piperidin-1-yl)-3-methoxybenzamide]	< 30	< 30	> 10000
++ (++: <0.5)	COc1cc(C(=O)NN2CCC(CCN3CCN(c4cc(OC)c(NC5CCC(=O)NC5=O)cc4F)CC3)CC2)ncc1Nc1ncc2c(n1)N(C1CCCC1)CC(F)(F)C(=O)N2C (stereo not shown) [Compound 47, 5-((9-cyclopentyl-7,7-difluoro-5-methyl-6-oxo-6,7,8,9-tetrahydro-5H-pyrimido[4,5-b][1,4]diazepin-2-yl)amino)-N-(4-(2-(4-(4-((2,6-dioxopiperidin-3-yl)amino)-2-fluoro-5-methoxyphenyl)piperazin-1-yl)ethyl)piperidin-1-yl)-4-methoxypicolinamide]	< 50	< 50	> 10000

— patent US20260273072A1, “NOVEL PLK1 DEGRADATION INDUCING COMPOUND” (UPPTHERA, INC., priority 2023, published 2026)
